Test results as given in patent US9273063B2, “Method for preparing a rifaximin product” (Salix Pharmaceuticals, Inc., priority 2007, dated 2016).

How the values were obtained:
[1] = Water solubility in dissolution tester (distilled water, 37° C., 100 rpm, spectrophotometric analysis); assay type: physicochemical; conditions: 37° C.±0.5° C.
Method: Moreover, with regard to water solubility, after conditioning a dissolution tester (Pharma Test Type PTW S III s/n 5390) using distilled water at a temperature of 37° C.±0.5° C. at a speed of 100 rpm, four dissolutions were carried out, in each of which the first three vessels of the dissolution tester were used for the substance in crystalline form and the last three for the substance in amorphous form.
10 ml of the solute were withdrawn from each vessel after 15 minutes of stirring; the withdrawn samples were filtered with 0.45 μm filters and subjected to spectophotometric analysis, repeating the operation after 30 and 60 minutes.

[2] = Dissolution in ethanol, amorphous vs crystalline form; assay type: physicochemical; conditions: without stirring
Method: The dissolution profile of the substance in amorphous form was also determined, and compared with that of the substance in crystalline form.

concentration of dissolved substance relative to that of the substance in amorphous form ([1]; after one hour of dissolution)	dissolved percentage compared with that of the substance in crystalline form [1]	Compound	dissolution behaviour in ethanol [2]
about 7%		CO[C@H]1/C=C/O[C@@]2(C)Oc3c(C)c(O)c4c(O)c(c5c(nc6cc(C)ccn65)c4c3C2=O)NC(=O)/C(C)=C\C=C\[C@H](C)[C@H](O)[C@@H](C)[C@@H](O)[C@@H](C)[C@H](OC(C)=O)[C@@H]1C [crystalline form, Rifaximin]	less wettable
	one order of magnitude greater	CO[C@H]1/C=C/O[C@@]2(C)Oc3c(C)c(O)c4c(O)c(c5c(nc6cc(C)ccn65)c4c3C2=O)NC(=O)/C(C)=C\C=C\[C@H](C)[C@H](O)[C@@H](C)[C@@H](O)[C@@H](C)[C@H](OC(C)=O)[C@@H]1C [amorphous form, Rifaximin]	easily dissolves in ethanol even without stirring
